# Measurements as given in the supplement of paper PMC10307832.
# Experiments:
# Experiment in all cases: relative viability (nuclei count vs DMSO), 5 days (fraction); higher = more cells survive
# Lapatinib + Dasatinib = compound: CS(=O)(=O)CCNCc1ccc(-c2ccc3ncnc(Nc4ccc(OCc5cccc(F)c5)c(Cl)c4)c3c2)o1 [Lapatinib] + Cc1nc(Nc2ncc(C(=O)Nc3c(C)cccc3Cl)s2)cc(N2CCN(CCO)CC2)n1 [Dasatinib] (partner 0.075 µM)
# How it was run: (§1)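 For relative viability, nuclei counts in treated wells were divided by those in vehicle wells. Lung cancer cell lines had been pin-tool dosed in 1536-well plates the day after seeding and cultured for 5 days, then fixed and stained in one step (final 0.05% Triton X-100, 1% formaldehyde, 1 ug/ml Hoechst) and imaged at 4×. Doses were one drug alone or a fixed anchor-drug dose plus five library-drug doses (not always all listed) in √10 steps, and values are duplicate-plate medians.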
# Lapatinib + Vorinostat = compound: CS(=O)(=O)CCNCc1ccc(-c2ccc3ncnc(Nc4ccc(OCc5cccc(F)c5)c(Cl)c4)c3c2)o1 [Lapatinib] + O=C(CCCCCCC(=O)Nc1ccccc1)NO [Vorinostat] (partner 1 µM)
# How it was run: as §1
# Lapatinib + Pemetrexed = compound: CS(=O)(=O)CCNCc1ccc(-c2ccc3ncnc(Nc4ccc(OCc5cccc(F)c5)c(Cl)c4)c3c2)o1 [Lapatinib] + Nc1nc2[nH]cc(CCc3ccc(C(=O)N[C@@H](CCC(=O)O)C(=O)O)cc3)c2c(=O)[nH]1 [Pemetrexed] (partner 0.2 µM)
# How it was run: as §1
# Wnt-C59 + Luminespib = compound: CC1=NC=CC(=C1)C2=CC=C(C=C2)CC(=O)NC3=CC=C(C=C3)C4=CN=CC=C4 [Wnt-C59] + CCNC(=O)c1noc(-c2cc(C(C)C)c(O)cc2O)c1-c1ccc(CN2CCOCC2)cc1 [Luminespib] (partner 0.01 µM)
# How it was run: as §1
Cell Line,relative viability (Lapatinib + Dasatinib; first compound 0.02 µM),relative viability (Lapatinib + Dasatinib; first compound 0.06325 µM),relative viability (Lapatinib + Dasatinib; first compound 0.2 µM),relative viability (Lapatinib + Dasatinib; first compound 0.6325 µM),relative viability (Lapatinib + Dasatinib; first compound 2 µM),relative viability (Lapatinib + Vorinostat; first compound 0.06325 µM),relative viability (Lapatinib + Vorinostat; first compound 0.2 µM),relative viability (Lapatinib + Vorinostat; first compound 0.6325 µM),relative viability (Lapatinib + Vorinostat; first compound 2 µM),relative viability (Lapatinib + Pemetrexed; first compound 0.02 µM),relative viability (Lapatinib + Pemetrexed; first compound 0.06325 µM),relative viability (Lapatinib + Pemetrexed; first compound 0.2 µM),relative viability (Lapatinib + Pemetrexed; first compound 0.6325 µM),relative viability (Lapatinib + Pemetrexed; first compound 2 µM),relative viability (Wnt-C59 + Luminespib; first compound 0.001 µM),relative viability (Wnt-C59 + Luminespib; first compound 0.01 µM),relative viability (Wnt-C59 + Luminespib; first compound 0.03162 µM),relative viability (Wnt-C59 + Luminespib; first compound 0.1 µM),relative viability (Lapatinib + Vorinostat; first compound 0.02 µM)
H3255,0.316,0.325,0.315,0.288,0.18,0.697,0.741,0.816,0.293,0.514,0.514,0.544,0.504,0.407,0.94,0.884,1.04,0.919,–
NCI-H322M,0.287,0.238,0.246,0.226,0.225,0.749,0.786,0.92,0.683,0.648,0.54,0.571,0.575,0.49,0.978,0.737,0.737,0.809,0.947
NCI-H1666,0.764,0.612,0.748,0.661,0.508,0.978,1.05,0.961,0.789,0.858,0.789,0.851,0.841,0.67,1.05,1.04,1.04,1.03,0.951
LU99A,0.492,0.408,0.453,0.587,0.475,0.358,0.506,0.426,0.469,0.203,0.161,0.223,0.178,0.182,0.249,0.269,0.249,0.263,0.49
NCI-H460,0.496,0.345,0.372,0.624,0.452,0.67,0.815,0.715,0.533,0.0637,0.0621,0.0581,0.0692,0.0618,0.0357,0.0331,0.0466,0.0312,0.671
RERF-LC-KJ,0.812,0.545,0.732,0.75,0.36,0.632,0.673,0.647,0.601,0.39,0.472,0.466,0.444,0.459,1.2,1.38,1.23,1.18,0.543
NCI-H2087,–,0.609,0.874,0.988,0.854,0.843,0.728,0.604,0.671,0.646,0.636,0.599,0.616,0.513,0.146,0.183,0.187,0.216,0.547
COR-L23,0.501,0.441,0.508,0.565,0.443,0.522,0.558,0.553,0.393,0.214,0.189,0.2,0.204,0.203,0.758,0.667,0.742,0.617,0.422
NCI-H2009,0.282,0.244,0.358,0.33,0.286,0.74,0.894,0.693,0.679,0.972,1.02,1.05,0.98,0.998,1.04,0.976,1.07,0.997,0.733
NCI-H1944,0.185,0.153,0.204,0.243,0.207,0.511,0.461,0.459,0.437,0.619,0.493,0.551,0.523,0.41,0.802,0.758,0.769,0.652,0.514
NCI-H838,0.263,–,0.304,0.276,0.247,0.69,0.743,0.732,0.544,0.275,0.244,0.258,0.311,0.251,0.279,0.347,0.311,0.303,0.699
NCI-H2126,–,0.404,0.533,0.559,0.387,0.405,0.717,0.801,0.614,0.379,0.484,0.655,0.672,0.607,0.83,1,0.991,0.892,0.251
NCI-H1975,0.417,0.316,0.378,0.41,0.219,0.676,0.732,0.716,0.662,0.316,0.298,0.287,0.283,0.284,0.347,0.28,0.217,0.143,0.71
NCI-H650,–,0.389,0.404,0.458,0.439,0.38,0.434,0.577,0.538,–,0.881,0.913,1.08,0.963,0.752,0.751,0.865,0.718,–
A-427,–,0.664,0.825,0.745,0.692,0.841,0.862,0.833,0.845,0.928,0.949,0.946,1.06,0.963,0.886,0.943,0.715,0.933,0.839
NCI-H1993,0.564,–,0.55,0.516,0.563,–,0.721,0.672,0.509,0.595,–,0.578,0.607,0.543,0.862,–,0.948,0.365,0.45
CAL-12T,–,0.216,0.271,0.236,0.131,0.624,0.755,0.71,0.424,1.16,1.31,1.37,1.04,0.744,0.397,0.307,0.592,0.571,0.655
NCI-H441,–,0.263,0.562,0.557,0.592,–,0.84,0.757,0.887,0.305,–,0.248,0.231,0.248,0.428,0.247,0.276,0.407,0.713

Cell Line,relative viability (Lapatinib + Dasatinib; first compound 0.02 µM),relative viability (Lapatinib + Dasatinib; first compound 0.06325 µM),relative viability (Lapatinib + Dasatinib; first compound 0.2 µM),relative viability (Lapatinib + Dasatinib; first compound 0.6325 µM),relative viability (Lapatinib + Dasatinib; first compound 2 µM),relative viability (Lapatinib + Vorinostat; first compound 0.06325 µM),relative viability (Lapatinib + Vorinostat; first compound 0.2 µM),relative viability (Lapatinib + Vorinostat; first compound 0.6325 µM),relative viability (Lapatinib + Vorinostat; first compound 2 µM),relative viability (Lapatinib + Pemetrexed; first compound 0.02 µM),relative viability (Lapatinib + Pemetrexed; first compound 0.06325 µM),relative viability (Lapatinib + Pemetrexed; first compound 0.2 µM),relative viability (Lapatinib + Pemetrexed; first compound 0.6325 µM),relative viability (Lapatinib + Pemetrexed; first compound 2 µM),relative viability (Wnt-C59 + Luminespib; first compound 0.001 µM),relative viability (Wnt-C59 + Luminespib; first compound 0.01 µM),relative viability (Wnt-C59 + Luminespib; first compound 0.03162 µM),relative viability (Wnt-C59 + Luminespib; first compound 0.1 µM),relative viability (Lapatinib + Vorinostat; first compound 0.02 µM)
NCI-H1437,0.28,0.245,0.382,0.304,0.345,0.861,0.825,0.793,0.527,0.303,0.302,0.279,0.289,0.329,1.21,1.07,1.17,1.05,0.782
BEN,–,0.307,0.303,0.28,0.358,0.587,0.586,0.559,0.51,0.409,0.847,0.683,0.802,0.71,0.331,0.423,0.457,0.598,0.506
LOU-NH91,0.365,0.398,0.431,0.46,0.404,0.675,0.856,0.824,0.769,0.377,0.41,0.39,0.415,0.458,0.375,0.284,0.298,0.348,0.398
PC-3 [JPC-3],0.877,0.87,1,0.977,0.624,0.804,–,0.637,0.495,–,1.13,–,0.995,0.588,0.782,0.817,0.913,0.696,–
NCI-H1355,–,0.465,0.705,0.694,0.319,0.541,0.568,0.61,0.395,0.833,0.93,0.948,1.06,0.889,0.774,0.693,0.649,0.626,0.574
NCI-H520,0.235,0.161,0.265,0.178,0.187,0.684,0.707,0.671,0.76,0.741,0.636,0.604,0.712,0.489,0.212,0.212,0.231,0.212,0.7
SK-LU-1,0.162,0.159,0.179,0.205,0.182,0.747,0.829,0.776,0.802,0.961,0.9,1.02,0.98,0.886,0.211,0.219,0.184,0.206,0.681
NCI-H2228,0.397,0.426,0.606,0.52,0.49,0.7,0.907,0.517,0.48,0.338,0.34,0.312,0.272,0.331,0.173,0.149,0.223,0.197,0.774
NCI-H358,0.138,0.0919,0.127,0.0982,0.14,0.418,0.511,0.362,0.215,0.173,0.157,0.16,0.167,0.189,0.315,0.341,0.291,0.475,0.596
EKVX,–,0.321,0.423,0.384,0.196,0.476,0.48,0.426,0.26,–,0.361,0.344,0.274,0.355,0.952,0.824,0.857,0.704,–
NCI-H2085,0.241,0.212,0.284,0.16,0.204,0.716,0.795,0.741,0.587,0.743,0.806,0.911,0.847,0.605,0.457,0.502,0.419,0.494,0.666
NCI-H23,–,–,0.688,0.762,0.738,–,0.624,0.746,0.555,–,–,0.782,0.58,0.529,0.206,0.217,0.227,0.217,–
NCI-H647,0.158,0.155,0.167,0.197,0.201,0.403,0.627,0.498,0.584,0.176,0.149,0.162,0.168,0.158,0.145,0.175,0.149,0.166,0.627
NCI-H1395,0.43,0.39,0.375,0.439,0.425,0.704,0.779,0.789,0.646,–,0.938,0.87,0.887,0.793,0.702,0.589,0.762,0.773,–
COR-L 105,0.266,0.238,0.277,0.232,0.205,0.825,0.779,0.42,0.589,1.09,1.16,0.953,0.68,0.619,0.913,0.609,0.823,0.645,0.773
NCI-H1651,0.443,0.284,0.386,0.476,0.406,0.517,0.477,0.543,0.521,0.48,0.553,0.553,0.6,0.657,0.864,0.862,0.97,0.835,0.615
PC-14,0.25,0.198,0.251,0.159,0.0375,0.55,0.76,0.732,0.0919,0.151,0.117,0.167,0.133,0.129,0.178,0.166,0.144,0.16,0.652
